Laboratory results reported in patent publication US8822449B2, “Substituted aminoindanes and analogs thereof, and the pharmaceutical use thereof” (Sanofi, priority 2008, dated 2014).

Target: T1, sodium-proton exchanger of subtype 3 (NHE3) (Homo sapiens, UniProt P48764)
T1 construct: expressed in transfected cells
T1 sequence (P48764 26-834): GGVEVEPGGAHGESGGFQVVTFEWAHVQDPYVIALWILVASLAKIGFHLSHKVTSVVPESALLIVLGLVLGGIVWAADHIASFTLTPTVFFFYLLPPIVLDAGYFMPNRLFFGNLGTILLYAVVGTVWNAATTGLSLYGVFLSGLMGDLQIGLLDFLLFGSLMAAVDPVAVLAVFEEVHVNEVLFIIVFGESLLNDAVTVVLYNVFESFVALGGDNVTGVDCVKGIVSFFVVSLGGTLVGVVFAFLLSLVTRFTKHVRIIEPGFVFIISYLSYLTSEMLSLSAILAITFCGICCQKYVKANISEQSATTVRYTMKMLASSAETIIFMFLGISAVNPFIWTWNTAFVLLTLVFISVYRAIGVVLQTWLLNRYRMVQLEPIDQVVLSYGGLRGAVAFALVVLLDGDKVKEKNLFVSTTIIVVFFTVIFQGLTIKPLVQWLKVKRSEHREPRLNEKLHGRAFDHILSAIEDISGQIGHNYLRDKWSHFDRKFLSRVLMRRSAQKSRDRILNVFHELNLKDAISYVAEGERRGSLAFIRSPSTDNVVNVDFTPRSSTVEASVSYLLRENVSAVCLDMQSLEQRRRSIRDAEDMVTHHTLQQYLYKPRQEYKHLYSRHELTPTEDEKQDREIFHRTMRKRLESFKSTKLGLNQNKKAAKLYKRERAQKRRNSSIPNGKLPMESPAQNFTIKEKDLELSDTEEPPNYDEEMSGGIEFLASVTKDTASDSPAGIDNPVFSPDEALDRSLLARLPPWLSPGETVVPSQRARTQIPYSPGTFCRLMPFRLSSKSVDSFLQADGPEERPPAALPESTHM
Assay: Recovery of intracellular pH (pHi) after acidification in LAP1 cells stably expressing NHE3 (BCECF fluorescence, FLIPR)
Type: cell-based
Details: LAP1 cells stably expressing NHE3; pH recovery after acidification; range 1 is % inhibition at 10 μM; read-out: Activity range (inhibitory effect on NHE3)

Structure (SMILES)	IC50 [nM]	inhibition at 10 µM [%]
CS(=O)(=O)c1ccc(O[C@H]2c3cc(Cl)cc(F)c3C[C@@H]2N2CCCC2)cc1 (racemic) [Example 293, 1-[rac-trans-(1,2)-6-chloro-4-fluoro-1-(4-methanesulfonylphenoxy)indan-2-yl]pyrrolidine]	1000 to 10000	–
c1ccc2c(c1)CC[C@H](N1CCOCC1)[C@H]2Oc1cccc2ncccc12 (racemic) [Example 570, 5-(rac-trans-(1,2)-2-morpholin-4-yl-1,2,3,4-tetrahydronaphthalen-1-yloxy)quinoline]	–	20 to 50
O=C1OCCN1c1ccc(Cl)c(O[C@H]2c3cc(Cl)cc(Cl)c3C[C@@H]2N2CC[C@@H](O)C2)c1 [Example 434, 3-{4-chloro-3-[(1S,2S)-4,6-dichloro-2-((R)-3-hydroxypyrrolidin-1-yl)indan-1-yloxy]phenyl}oxazolidin-2-one]	< 1000	–
COCCN1CCCN([C@H]2Cc3c(Cl)cc(Cl)cc3[C@@H]2Oc2ccc(-n3c(C)nnc3C)cc2)CC1 [Example 348, 1-{trans-(1S,2S)-4,6-dichloro-1-[4-(3,5-dimethyl-[1,2,4]triazol-4-yl)phenoxy]indan-2-yl}-4-(2-methoxyethyl)-[1,4]diazepane]	< 1000	–
Cc1nnc(C)n1-c1ccc(O[C@H]2c3cc(Cl)ccc3C[C@@H]2N2CCOCC2)c(Cl)c1 [Example 566, 4-{trans-(1S,2S)-6-chloro-1-[2-chloro-4-(3,5-dimethyl-[1,2,4]triazol-4-yl)phenoxy]indan-2-yl}morpholine]	< 1000	–
Cc1nc2cc(O[C@@H]3c4ccccc4C[C@H]3N3CCC[C@@H](N)C3)ccc2s1 (racemic) [Example 47, (R)-1-[rac-trans-(1,2)-1-(2-methylbenzothiazol-5-yloxy)indan-2-yl]piperidin-3-ylamine]	< 1000	–
NS(=O)(=O)c1ccc(O[C@H]2c3ccccc3C[C@@H]2N2CCCC(O)C2)c(Cl)c1Cl (mixture of isomers) [Example 361, 2,3-dichloro-4-[trans-(1S,2S)-2-(3-hydroxy-piperidin-1-yl)indan-1-yloxy]benzenesulfonamide]	1000 to 10000	–
N#Cc1cc(Cl)ccc1O[C@@H]1c2ccccc2C[C@H]1N1CCC(CN)CC1 (racemic) [Example 376, 2-[rac-trans-(1,2)-2-(4-aminomethylpiperidin-1-yl)indan-1-yloxy]-5-chlorobenzonitrile]	1000 to 10000	–
NS(=O)(=O)c1ccc(O[C@H]2c3ccccc3C[C@@H]2CN2CCCC2)cc1Cl (racemic) [Example 389, 2-chloro-4-(2-pyrrolidin-1-ylmethylindan-1-yloxy)benzenesulfonamide]	1000 to 10000	–
N#Cc1c(F)cccc1O[C@@H]1c2ccccc2C[C@H]1N1C[C@H]2CNC[C@H]2C1 (racemic) [Example 398, 2-fluoro-6-[rac-trans-(1,2)-2-(hexahydropyrrolo[3,4-c]pyrrol-2-yl)indan-1-yloxy]benzonitrile]	1000 to 10000	–
NCC1CCN([C@@H]2Cc3ccccc3[C@H]2Oc2ccc(S(N)(=O)=O)c(Cl)c2Cl)CC1 (racemic) [Example 545, 4-[rac-trans-(1,2)-2-(4-aminomethylpiperidin-1-yl)indan-1-yloxy]-2,3-dichlorobenzenesulfonamide]	1000 to 10000	–
O=C1CCCN1c1ccc(O[C@H]2c3cc(Cl)cc(Cl)c3C[C@@H]2N2CCCC2)cc1 [Example 260, 1-[4-((1S,2S)-4,6-dichloro-2-pyrrolidin-1-ylindan-1-yloxy)phenyl]pyrrolidin-2-one]	1000 to 10000	–
Cc1nnc(C2CC2)n1-c1ccc(O[C@H]2c3ccccc3C[C@@H]2N2CCCC2)cc1 (racemic) [Example 448, 3-Cyclopropyl-5-methyl-4-[4-(rac-trans-(1,2)-2-pyrrolidin-1-ylindan-1-yloxy)phenyl]-4H-[1,2,4]triazole]	< 1000	–
CC(=O)Nc1cccc(O[C@H]2c3cc(F)cc(Cl)c3C[C@@H]2N2CCCC2)c1 (racemic) [Example 651, N-[3-(rac-trans-(1,2)-4-chloro-6-fluoro-2-pyrrolidin-1-ylindan-1-yloxy)phenyl]acetamide]	1000 to 10000	–
Cc1nnc(C(C)C)n1-c1ccc(O[C@H]2c3cc(Cl)cc(F)c3C[C@@H]2N2CC[C@@H](O)C2)cc1 [Example 721, (R)-1-{trans-(1S,2S)-6-Chloro-4-fluoro-1-[4-(3-isopropyl-5-methyl-[1,2,4]triazol-4-yl)-phenoxy]-indan-2-yl}-pyrrolidin-3-ol]	1000 to 10000	–
Cc1nnc(C)n1-c1ccc(O[C@H]2c3cc(Cl)cc(Cl)c3C[C@@H]2N2CCCN(C)CC2)cc1 [Example 349, 1-{trans-(1S,2S)-4,6-dichloro-1-[4-(3,5-dimethyl-[1,2,4]triazol-4-yl)phenoxy]indan-2-yl}-4-methyl-[1,4]diazepane]	< 1000	–
CC(=O)Nc1cccc(O[C@@H]2c3ccccc3C[C@H]2N2CCC(CN)CC2)c1 (racemic) [Example 688, N-{3-[rac-trans-(1,2)-2-(4-aminomethylpiperidin-1-yl)indan-1-yloxy]phenyl}acetamide]	1000 to 10000	–
NS(=O)(=O)c1ccc(OC2c3ccccc3CC2N2CCCC2)cc1 (racemic) [Example 466, 4-(rac-trans-(1,2)-2-pyrrolidin-1-ylindan-1-yloxy)benzenesulfonamide]	< 1000	–
NCC1CCN([C@@H]2Cc3ccccc3[C@H]2Oc2ccnc3ccccc23)CC1 (racemic) [Example 622, C-{1-[rac-trans-(1,2)-1-(quinolin-4-yloxy)indan-2-yl]piperidin-4-yl}methylamine]	1000 to 10000	–
CC(=O)Nc1cccc(O[C@H]2c3ccccc3C[C@@H]2N2CCC[C@@H](N(C)C)C2)c1 [Example 692, N-{3-[trans-(1S,2S)-2-((R)-3-dimethylaminopiperidin-1-yl)indan-1-yloxy]phenyl}acetamide]	< 1000	–
N#Cc1ccc(O[C@@H]2c3ccccc3C[C@H]2N2CCC(CN)C2)c(Cl)c1 (mixture of isomers) [Example 541, 4-[rac-trans-(1,2)-2-(3-aminomethylpyrrolidin-1-yl)indan-1-yloxy]-3-chlorobenzonitrile]	1000 to 10000	–
N[C@H]1CCCN([C@H]2CCc3ccccc3[C@@H]2Oc2ccc(C(F)(F)F)cc2)C1 (racemic) [Example 186, (S)-1-[rac-trans-(1,2)-1-(4-trifluoromethylphenoxy)-1,2,3,4-tetrahydronaphthalen-2-yl]piperidin-3-ylamine]	–	20 to 50
Cc1cc2c(O[C@H]3c4ccccc4CC[C@@H]3N3CCOCC3)cccc2[nH]1 (racemic) [Example 399, 2-methyl-4-(rac-trans-(1,2)-2-morpholin-4-yl-1,2,3,4-tetrahydronaphthalen-1-yloxy)-1H-indole]	–	20 to 50
O=c1[nH]ccn1-c1ccc(O[C@H]2c3cc(Cl)cc(Cl)c3C[C@@H]2N2CC[C@@H](O)C2)cc1 [Example 325, 1-{4-[(1S,2S)-4,6-dichloro-2-((R)-3-hydroxypyrrolidin-1-yl)indan-1-yloxy]phenyl}-1,3-dihydroimidazol-2-one]	< 1000	–
CS(=O)(=O)c1ccc(O[C@H]2c3cc(Cl)cc(F)c3C[C@@H]2N2CC[C@@H](O)C2)c(Cl)c1 [Example 106, (R)-1-[trans-(1S,2S)-6-chloro-1-(2-chloro-4-methanesulfonylphenoxy)-4-fluoroindan-2-yl]pyrrolidin-3-ol]	< 1000	–
